{"source": "patent US5252495A", "about": "“Immunoassay for physostigmine” (priority 1992, dated 1993)", "key": {"[1]": {"target": "Antibody from Diazo-coupled Immunogen", "assay": "RIA cross-reactivity: competition with labeled physostigmine for antibody from diazo-coupled immunogen", "format": "binding, New Zealand white rabbits", "details": "1:150, max 1000 ng tested", "experimental": "(§1) Antibodies to the physostigmine-BSA immunogen were produced by injecting male New Zealand white rabbits with immunogens formed by either method. Prior to injection, the immunogen was emulsified with an equal volume of complete Freund's adjuvant, purchased from Difco Laboratories of Detroit, Mich. The initial immunization consisted of 0.8 mg of protein injected intracutaneously in multiple dorsal sites of the rabbits. Booster injections containing 0.8 mg of immunogen and incomplete Freund's adjuvant were administered every two months for the next six months. Antisera was collected one week after each booster injection from the central ear vein. The blood was allowed to clot at room temperature and then centrifuged at 1500×g for 15 minutes. The separated serum was stored frozen at -20° C. until assayed for the presence of physostigmine antibody.\nIn the assay procedure ^3 H-Physostigmine having specificity of 19.0 Ci/mmole and purchased from the Amersham Corp. of Arlington Heights, Ill., was used as tracer. The dilution of tracer (5000 dpm), antibody (1:150) and physostigmine standards (100-10,000 pg) were made using 0.01M phosphate buffer containing 150 mM sodium chloride with a pH of 7.4. […] Both standard and sample tubes were always analyzed in duplicate. The assay was carried out according to the protocol shown in Table 1 with the reagents were added to the assay tubes in the order shown.\n(§2) According to the protocol for the RIA of the present invention, after the addition of antisera, the contents of the tubes were mixed and incubated for 3 hours at 4° C. The antigen which bound to the antibody was separated by adding saturated ammonium sulfate and centrifuging at 2500×g for 15 minutes. After aspiration of the supernatant, the precipitate was washed one time with 50% saturated ammonium sulfate; then the mixture was centrifuged and the supernatent removed. The precipitate was dissolved in 1.0 ml of distilled water, and the solution was transferred to a scintillation vial containing 10.0 ml of acquasol 2.\n(§3) The radioactivity which was bound to the antibody was determined in counts per minute with a Beckman LS-3133P Liquid Scintillation Counter. […] The concentration of physostigmine is plotted on the horizontal axis, while the percent inhibition of binding radioactively labeled is plotted on the vertical axis. […] Concentrations of physostigmine in unknown samples were determined according to conventional calculations from the standard curve.\n(§4) Competition of the compounds with labeled physostigmine (5000 dpm) for antibody binding sites was determined arbitrarily at 50% inhibition of the physostigmine on the standard curve. Each compound was tested for cross-reactivity with the antibody. The maximum concentration of each compound tested was 1000 ng."}, "[2]": {"details": "particularly in plasma and blood; cited from earlier work"}, "[3]": {"target": "Antibody from Mannich Immunogen", "assay": "RIA cross-reactivity: competition with labeled physostigmine for antibody from Mannich immunogen", "format": "binding, New Zealand white rabbits", "details": "1:100, max 1000 ng tested", "experimental": "as §1\nIn the assay procedure ^3 H-Physostigmine having specificity of 19.0 Ci/mmole and purchased from the Amersham Corp. of Arlington Heights, Ill., was used as tracer. […] Both standard and sample tubes were always analyzed in duplicate. The assay was carried out according to the protocol shown in Table 1 with the reagents were added to the assay tubes in the order shown.\nas §2, §3, §4"}}}
{"smiles": "CNC(=O)Oc1ccc2c(c1)[C@]1(C)CCN(C)[C@@H]1N2C", "note": "[Physostigmine, physostigmine]", "values": [{"measurement": "IC50 (50% inhibition of binding of 3H-physostigmine)", "setting": "[1]", "value": 1.35, "unit": "ng"}, {"measurement": "in vitro hydrolysis in biological solutions", "setting": "[2]", "value": "extensive in vitro hydrolysis"}, {"measurement": "IC50 (50% inhibition of binding of 3H-physostigmine)", "setting": "[3]", "value": 1.35, "unit": "ng"}]}
